Laboratory results from patent publication US6410684B1, “Serine protease inhibitors” (Akzo Nobel N.V., priority 1996, dated 2002).

Molecular target: T1, Thrombin (Factor IIa) (Homo sapiens, UniProt P00734)
T1 construct: purchased Centraal Laboratorium voor Bloedtransfusie, Amsterdam, The Netherlands
Assay: Anti-thrombin assay (hydrolysis of chromogenic substrate S-2238)
Assay type: biochemical
Settings: chromogenic substrate S-2238, TNP buffer, 37° C., absorbance at 405 nm
Protocol: Thrombin (Factor IIa) is a factor in the coagulation cascade. The anti-thrombin activity of compounds of the present invention was assessed by measuring spectrophotometrically the rate of hydrolysis of the chromogenic substrate s-2238 exterted by thrombin. This assay for anti-thrombin activity in a buffer system was used to assess the IC50-value of a test compound.
Test medium: Tromethamine-NaCl-polyethylene glycol 6000 (TNP) buffer. Reference compound: 12581 (Kabi) Vehicle: TNP buffer. Solubilisation can be assisted with dimethylsulphoxide, methanol, ethanol, acetonitrile or tert-butyl alcohol which are without adverse effects in concentrations up to 2.5% in the final reaction mixture.
Reagents*: 1. Tromethamine-NaCl (TN) buffer. Composition of the buffer: Tromethamine (Tris) 6.057 g (50 mmol), NaCl 5.844 g (100 mmol), water to 1 l. The pH of the solution is adjusted to 7.4 at 37° C. with HCl (10 mmol·l^−1). 2. TNP buffer: Polyethylene glycol 6000 is dissolved in TN buffer to give a concentration of 3 g·l^−1. 3. S-2238 solution: One vial S-2238 (25 mg; Kabi Diagnostica, Sweden) is dissolved in 20 ml TN buffer to give a concentration of 1.25 mg·ml^−1 (2 mmol·l^−1). 4. Thrombin solution: Human thrombin (16 000 nKat·vial^−1; Centraal Laboratorium voor Bloedtransfusie, Amsterdam, The Netherlands) is dissolved in TNP buffer to give a stock solution of 835 nKat·ml^−1. Immediately before use this solution is diluted with TNP buffer to give a concentration of 3.34 nKat·ml^−1.
The test and reference compounds are dissolved in Milli-Q water to give stock concentrations of 10^−2 mol·l^−1. Each concentration is stepwise diluted with the vehicle to give concentrations of 10^−3, 10^−4 and 10^−5 mol·l^−1. The dilutions, including the stock solution, are used in the assay (final concentrations in the reaction mixture: 3·10^−3; 10^−3; 3·10^−4; 10^−4; 3·10^−5; 10^−5; 3·10^−6; and 10^−6 mol·l^−1, respectively).
At room temperature 0.075 ml and 0.025 ml test compound or reference compound solutions or vehicle are alternately pipetted into the wells of a microtiter plate and these solutions are diluted with 0.115 ml and 0.0165 ml TNP buffer, respectively. An aliquot of 0.030 ml S-2238 solution is added to each well and the plate is pre-heated and pre-incubated with shaking in an incubator (Amersham) for 10 min. at 37° C. Following pre-incubation the hydrolysis of S-2238 is started by addition of 0.030 ml thrombin solution to each well. The plate is incubated (with shaking for 30 s) at 37° C. Starting after 1 min of incubation, the absorbance of each sample at 405 nm is measured every 2 min. for a period of 90 min. using a kinetic microtiter plate reader (Twinreader plus, Flow Laboratories).
All data are collected in an IBM personal computer using LOTUS-MEASURE. For each compound concentration (expressed in mol·l^−1 reaction mixture) and for the blank the absorbance is plotted versus the reaction time in min.
Evaluation of responses: For each final concentration the maximum absorbance was calculated from the assay plot. The IC50-value (final concentration, expressed in μmol·l^−1, causing 50% inhibition of the maximum absorbance of the blank) was calculated using the logit transformation analysis according to Hafner et al. (Arzneim.-Forsch./Drug Res. 1977; 27(II): 1871-3).

Row | IC50 | Structure (SMILES)
1 | 4.64 µM | NCC#CCC(NC(=O)C1CCCN1C(=O)C1NCCC2CCCCC21)C(=O)c1nccs1 (stereo not drawn) [Example 27]
2 | 0.7 µM | NCC#CCC(NC(=O)C1CCCN1C(=O)C(CC1CCCCC1)NCC(=O)O)C(=O)C(=O)N1CCC1 (stereo not drawn) [Example 15]
3 | 4.3 µM | CNC(CC1CCCCC1)C(=O)N1CCCC1C(=O)NC(CC#CCN)C(=O)C(=O)O [Example 3, N-Me-D-Cha-Pro-LysininylΨ[COCO]—OH]
4 | 5 µM | NCC#CCC(NC(=O)C1CCCN1C(=O)C(Cc1ccccc1)NCC(=O)O)C(=O)C(=O)O [Example 11, HOOC—CH2-D-Phe-Pro-LysininylΨ[COCO]—OH]
5 | 0.56 µM | NCC#CCC(NC(=O)C1CCCN1C(=O)C(CC1CCCCC1)NCC(=O)O)C(=O)c1nccs1 (stereo not drawn) [Example 1]
6 | 5.1 µM | NCCCCC(NC(=O)[C@@H]1CCCN1C(=O)[C@@H](Cc1ccc(Cl)cc1)NCC(=O)O)C(=O)c1nccs1 (stereo partly drawn) [Example 30, HOOC—CH2-D-p-Cl-Phe-Pro-Lysininyl-(2-thiazolyl)]
